Reference: patent US4877790A, “Quinazoline derivative, processes for its production, and cerebral dysfunction remedying agent comprising it as active ingredient” (Kanebo Limited, priority 1987, dated 1989)
Structures can show the parent of a compound that is named as a salt.

Legend:
[1] = tested on: complete ischemia by decapitation, male mice of the ddY strain; test: Anti-hypoxic activity: brain protection against complete ischemia by decapitation (gasping persistent time); format: in vivo; conditions: oral, Table 2
Method: (1) Brain protection against complete ischemia by decapitation:
Male mice of the ddY strain (body weight 20-25 g, 5 per group) were orally given the compound of the invention (dihydrochloride) dissolved in 1% gum arabic solution. One hour later, the mice were decapitated, and the time elapsed until a gasping-like mouth opening movement appearing after decapitation ceased (gasping persistent time) was measured, and compared with that obtained with the control group (the group to which 1% gum arabic solution was administered.

[2] = tested on: deficit of memory induced by scopolamine hydrobromide, male mice of the ddY strain; test: Anti-scopolamine-induced amnesia activity (one-trial passive avoidance response); format: in vivo; conditions: i.p. and p.o., Table 5
Method: Anti-scopolamine-induced amnesia activity:
Male mice of the ddY strain (body weight 20-25g, 20 per group) were used, and the activity of the test compound on deficit of memory induced by scopolamine hydrobromide (a muscarinic acetylcholine receptor antagonist) was examined using one-trial passive avoidance response as an index.
Using the same experimental device as in Test Example 1, the same acquisition trial and retrieval trial as in Test Example 1 were carried out (one-trial passive avoidance response.)
Scopolamine hydrobromide (1 mg/kg) was intraperitoneally (i.p.) administered to the animals 20 minutes before the acquisition trial. The compound of the invention (dihydrochloride) was dissolved in 1 % gum arabic solution, and intraperitoneally adminstered immediately after the acquisition trial, and orally (p.o.) administered 60 minutes before the acquisition trial.
A 1% solution of gum arabic was administered to the control group.

[3] = tested on: formation of lipid peroxide by autoxidation (brain homogenate); test: Lipid peroxide formation inhibiting activity (antioxidant activity), MDA in brain homogenate; format: biochemical, rats; conditions: for Antioxidant activity (percent inhibition of autoxidation): 37° C. 30 minutes, n = 4, mean ± standard error
Method: Lipid peroxide formation inhibiting activity (antioxidant activity):
The effect of the test compound on the formation of lipid peroxide by autoxidation was determined by the amount of malondialdehyde (MDA) formed.
Rats were decapitated, and the cerebrum was taken out and homogenized with 4 ml, per gram of the cerebrum, of 50 mM phosphate saline-buffer (pH 7.4) and centrifuged (2800 rpm, 10 minutes). The supernatant was taken into a 10 ml test tube to obtain a brain homogenate. It was frozen at -70° C. and stored.
The brain homogenate was defrozen, and immediately then, diluted to 10-fold with the aforesaid phosphate saline-buffer. A 2 ml portion of the dilution was taken into a 10 ml test tube cooled with ice, and used to measure its antioxidant activity. Twenty microliters of an aqueous solution of the compound of this invention (dihydrochloride) was added. The amount of MDA immediately after the addition was measured as shown below (MDA0 time). The mixture was incubated at 37° C. for 30 minutes. […] After cooling with ice, the cooled mixture was centrifuged (2800 rpm, 10 minutes). To 1 ml of the supernatant, 0.5 ml of 0.5 % thiobarbituric acid solution dissolved in 50% acetic acid solution was added, and the mixture was heated at 100° C. for 15 minutes. After cooling with ice, the absorbance of the solution at 532 nm was measured, and the amount of MDA formed was determined (MDA test).
As a control, the amount of MDA (MDAcont) was determined as above.
The antioxidant activity of the compound of the invention was expressed in terms of percent inhibition of autoxidation on the brain homogenate. The calculation was based on the following equation. [formula]

[4] = tested on: normobaric hypoxia, male mice of the ddY strain; test: Anti-hypoxic activity: brain protection against normobaric hypoxia (survival time); format: in vivo; conditions: oral, Table 3
Method: (2) Brain protection against normobaric hydpoxia
Male mice of the ddY strain (body weight 20-25g, 5 per group) were orally administered with the compound of the invention (dihydrochloride) dissolved in a 1% gum arabic solution. One hour after the adminstration, the mouse was put in a transparent plastic container (capacity 27 liters) through which 100% nitrogen was passed at a rate of 80 liters/min. The time elasped until the animal died (the survival time) was measured, and compared with that obtained with the control group (the group to which 1% gum arabic solution was administered).

[5] = tested on: carbon dioxide-induced amnesia, male mice of the ddY strain; test: Anti-CO2-induced amnesia activity (one-trial passive avoidance response); format: in vivo; conditions: oral, Table 1
Method: Anti-CO2 -induced amnesia activity (the activity of remedying hypoxia-induced deficits in learning and memory):
Male mice of the ddY strain (body weight 20-30 g, 30 per group) were used. Anti-CO2 -induced amnesia activity was determined by using one-trial passive avoidance response as an index.
The experimental device consisted of two compartments, one illuminated and the other dark, with a guillotine door in the boundary of the two compartments permitting free passage of the mice through it.
In an acquisition trial, a mouse was placed in the illuminated compartment and allowed to enter the dark one. As soon as the mouse entered the dark compartment, the door was shut, and an electrical shock (0.5 mA, 0.2 sec.) was applied through the grid floor. Thus, the mouse was caused to learn that it receives an electric shock upon entering the dark room. In a retrieval trial, the mouse was again placed in the illuminated compartment 24 hours after the acquisition trial, and the time elapsed until it entered the dark compartment (response latency) was measured to an extent of 300 seconds at the longest. (One-trial passive avoidance response). […]

Structure (SMILES): C=CCN1CCN(c2nc(OCCCCC)c3ccccc3n2)CC1 [Compound of the invention (2HCl), 2-(4-allyl-l-piperazinyl)-4-pentyloxyquinazoline dihydrochloride]
- activity of prolonging the gasping persistent time (in words) [1]: showed a significant activity of prolonging the gasping persistent time
- anti-scopolamine-induced amnesia activity (in words) [2]: showed a significant anti-scopolamine-induced amnesia activity
- Antioxidant activity (percent inhibition of autoxidation) ([3]; 10 μM): 6.4 ± 7.7%
- Antioxidant activity (percent inhibition of autoxidation) ([3]; 30 μM): 27.1 ± 6.8%
- Antioxidant activity (percent inhibition of autoxidation) ([3]; 100 μM): 77.9 ± 3.1%
- Antioxidant activity (percent inhibition of autoxidation) ([3]; 300 μM): 93.4 ± 2.2%
- activity of inhibiting formation of lipid peroxide (antioxidant activity) (in words) ([3]; Table 4): showed the activity of inhibiting formation of lipid peroxide
- activity of prolonging the survival time (in words) [4]: showed a significant activity of prolonging the survival time
- anti-carbon dioxide induced amnesia activity (in words) [5]: showed a significant anti-carbon dioxide induced amnesia activity
